Experimental data from US11014898B1, “Benzothiazepine compounds and their use as bile acid modulators” (Albireo AB, priority 2020, dated 2021).
pIC50: −log10 of the molar value.

How the values were obtained:
[1] = molecular target: T1, Human IBAT (Homo sapiens, UniProt Q12908); assay: IBAT (h) assay: 3H-taurocholic acid uptake in human IBAT-overexpressing cells; assay type: cell-based; conditions: 0.25 μM 3H-taurocholic acid and 5 μM cold taurocholic acid, 20 minutes, read-out: hIBAT IC50
T1 construct: expressed in transfected cells; cells kept under Puromycin selection
T1 sequence (Q12908 1-348): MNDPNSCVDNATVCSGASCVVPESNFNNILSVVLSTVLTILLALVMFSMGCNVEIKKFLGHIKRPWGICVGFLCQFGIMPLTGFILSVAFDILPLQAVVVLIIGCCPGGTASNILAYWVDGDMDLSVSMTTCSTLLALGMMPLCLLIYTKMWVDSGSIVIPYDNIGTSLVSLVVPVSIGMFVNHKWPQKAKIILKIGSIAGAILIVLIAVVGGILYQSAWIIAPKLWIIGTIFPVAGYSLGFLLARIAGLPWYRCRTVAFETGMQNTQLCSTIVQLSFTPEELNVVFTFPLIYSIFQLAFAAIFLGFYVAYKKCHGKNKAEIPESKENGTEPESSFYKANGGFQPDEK
Procedure: 10,000 cells (Human or Mouse IBAT-overexpressing cells) were seeded in 96-wells plate (Corning CLS3809) in 200 μL MEM-alpha medium (Gibco 12571-063) supplemented with 10% FBS (Gibco 10438026) containing Puromycin (Gibco A1113803) (10 μg/mL) and incubated at 37° C. in 5% CO2 for 48 hours. After incubation, media was decanted from the wells and cells were washed two times with 300 μL of basal MEM-alpha medium (FBS-free). After decanting basal MEM-alpha medium each time, plates were tapped against paper towel to ensure maximum removal of residual media. Test inhibitor dilutions (highest test concentration being 10 μM, 3-fold serial dilution, 10 points) prepared in DMSO (Sigma D2650) were added in incubation mix (maintaining 0.2% final DMSO concentration) containing 0.25 μM 3H-taurocholic acid (ARC ART-1368) and 5 μM of cold taurocholic acid (Sigma T4009). 50 μL of incubation mix containing test inhibitors was then added to the wells (in duplicate) and the plates were incubated for 20 minutes in a CO2 incubator at 37° C. After incubation, the reaction was stopped by keeping the plates on ice water mix for 2-3 minutes and then the incubation mix was aspirated completely from the wells. The wells were washed two times with 250 μL of chilled unlabelled 1 mM taurocholic acid dissolved in HEPES (Gibco 15630080)-buffered (10 mM) HBSS (Gibco 14175079) (pH 7.4). The plates were tapped against a paper towel after every wash to ensure maximum removal of blocking buffer.
100 μL of MicroScint-20 (PerkinElmer 6013621) was added to the wells and kept overnight at room temperature before reading the plates in TopCount NXT™ Microplate Scintillation and Luminescence Counter from PerkinElmer under 3H Test protocol (set at 120 seconds reading time per well).
All test compounds were provided in powder form at room temperature. 10 mM DMSO stocks of the test compounds were prepared, aliquoted and stored at −20° C. From the 10 mM DMSO stock of the compounds, a 3-fold serial dilution in DMSO was prepared to get a total of 10 dilutions of the test compounds. 0.5 μL of this dilution in DMSO was added to 250 μL of FBS-free basal media containing 3H-taurocholic acid and cold taurocholic acid to prepare the incubation mixture.

[2] = Bidirectional permeability assay (Caco-2 cells); assay type: in vitro ADME; conditions: human, Caco-2, pH 7.4, 10 μM in FaSSIF buffer, 120 minutes at 37° C.; for Papp A→B at 120 min, 10 μM: absorptive direction (A2B); for Papp B→A at 120 min, 10 μM: secretory direction (B2A)
Procedure: Caco-2 cells (Evotec) were seeded at a density of 70,000 cells/well in Millicell® 24-well cell culture insert plates and maintained in an incubator (37° C., 5% CO2, 95% RH) for 21 days with media change on alternate days.
Stock solutions (10 mM) of the test compounds, atenolol (low permeability marker), propranolol (high permeability marker) and digoxin (substrate for P-gp transport pathway) were prepared in dimethylsulfoxide (DMSO). An intermediate stock solution (1 mM) was prepared by diluting 10 μL of 10 mM master stock solution with 90 μL of neat DMSO. A working stock solution (10 μM) was prepared by diluting 50 μL of 1 mM with 4950 μL of FaSSIF buffer. Post addition of compounds to the FaSSIF, samples were subjected to sonication for 2 hours, and centrifuged at 4000 RPM for 30 minutes at 37° C. The 4 mL of resultant supernatant was directly used in the assay. The final DMSO concentration in the transport experiments was 1%.
On the day of assay, Caco-2 monolayers were washed twice with transport buffer (HBSS, pH 7.4) and pre-incubated for 30 min (37° C., 5% CO2, 95% RH) in an incubator. The electrical resistance of the monolayers was measured with a Millicell®-ERS system. Monolayers with trans-epithelial electrical resistance (TEER) values greater than 350 ohm·cm^2 were selected for the assay.
The assay was conducted in absorptive direction (A2B) and secretory (B2A) directions. Transport experiments were initiated by addition of transport assay buffer (FaSSIF buffer prepared in HBSS) consisting of compounds to the donor compartment (apical chamber A-B; basolateral chamber B-A) in duplicate (n=2) wells. Drug free HBSS buffer (pH 7.4) containing 1% bovine serum albumin (BSA) was introduced to the receiver (A-B-basolateral; B-A-Apical) compartments. The volumes of apical and basolateral compartments were 0.4 and 0.8 mL, respectively. After adding dosing solution, plates were incubated in an incubator for 120 minutes at 37° C. After 120 minutes, donor and receiver samples were collected and matrix matched (1:1, 30 μL study sample+30 μL blank buffer) with the opposite buffer. Dosing samples matrix matched (1:1, 30 μL study sample+30 μL blank buffer) with the opposite buffer. Samples were processed by adding acetonitrile containing internal standard (60 μL study sample+200 μL acetonitrile containing internal standard-Tolbutamide, 500 ng/mL). Samples were vortexed and centrifuged at 4000 rpm for 10 minutes. The obtained supernatant (100 μL) was diluted with 100 μL of water and transferred to fresh 96 well plates. The concentration of compounds in the samples was analyzed by liquid chromatography tandem mass spectrometry (LC-MS/MS) method using discovery grade bio-analytical method, as applicable.
The mean apparent permeability (Papp×10^−6 cm/sec) of the test compounds, atenolol, propranolol and digoxin were calculated as follows:
where dq/dt=rate of transport (rate of transport of compound in the receiver compartment), C0=initial concentration in the donor compartment, A=surface area of the effective filter membrane.

pIC50 [1] | Papp A→B at 120 min, 10 μM [2] [×10⁻⁶ cm/s] | Papp B→A at 120 min, 10 μM [2] [×10⁻⁶ cm/s] | SMILES
7.85 | – | – | CCCCC1(CC)CN(c2ccccc2)c2cc(N(C)C)c(OCC(=O)O)cc2S(=O)(=O)C1 (racemic) [Example 7, 2-((3-butyl-7-(dimethylamino)-3-ethyl-1,1-dioxido-5-phenyl-2,3,4,5-tetrahydro-1,5-benzothiazepin-8-yl)oxy)acetic Acid]
8.19 | – | – | CCCCC1(CC)CN(c2ccc(F)cc2)c2cc(SC)c(OCC(=O)O)cc2S(=O)(=O)C1 (racemic) [Example 14, 2-((3-butyl-3-ethyl-5-(4-fluorophenyl)-7-(methylthio)-1,1-dioxido-2,3,4,5-tetrahydro-1,5-benzothiazepin-8-yl)oxy)acetic Acid]
7.72 | – | – | CCCCC1(CC)CN(c2ccc(O)cc2)c2cc(SC)c(OCC(=O)O)cc2S(=O)(=O)C1 (racemic) [Example 17, 2-((3-butyl-3-ethyl-5-(4-hydroxyphenyl)-7-(methylthio)-1,1-dioxido-2,3,4,5-tetrahydro-1,5-benzothiazepin-8-yl)oxy)acetic Acid]
6.66 | – | – | CCCCC1(CC)CN(c2ccccc2)c2cc(N(C)C)c(OCC(=O)O)cc2S(=O)(=O)C1 (single isomer, unassigned) [Example 9, 2-((3-butyl-7-(dimethylamino)-3-ethyl-1,1-dioxido-5-phenyl-2,3,4,5-tetrahydro-1,5-benzothiazepin-8-yl)oxy)acetic Acid]
8.62 | 8.7 | 12.9 | CCCCC1(CC)CN(c2ccc(F)cc2)c2cc(SC)c(OCC(=O)O)cc2S(=O)(=O)C1 (single isomer, unassigned) [Example 15, 2-((3-butyl-3-ethyl-5-(4-fluorophenyl)-7-(methylthio)-1,1-dioxido-2,3,4,5-tetrahydro-1,5-benzothiazepin-8-yl)oxy)acetic acid]
7.19 | – | – | CCCCC1(CC)CN(c2ccc(F)cc2)c2cc(SC)c(OCC(=O)O)cc2S(=O)(=O)C1 (single isomer, unassigned) [Example 16, 2-((3-butyl-3-ethyl-5-(4-fluorophenyl)-7-(methylthio)-1,1-dioxido-2,3,4,5-tetrahydro-1,5-benzothiazepin-8-yl)oxy)acetic acid]
6.15 | – | – | CCCCC1(CC)CN(c2ccc(O)cc2)c2cc(SC)c(OCC(=O)O)cc2S(=O)(=O)C1 (single isomer, unassigned) [Example 19, 2-((3-butyl-3-ethyl-5-(4-hydroxyphenyl)-7-(methylthio)-1,1-dioxido-2,3,4,5-tetrahydro-1,5-benzothiazepin-8-yl)oxy)acetic Acid]
7.62 | 3.2 | 9.4 | CCCCC1(CCCC)CN(c2ccccc2)c2cc(N(C)C)c(OCC(=O)O)cc2S(=O)(=O)C1 [Example 1, 2-((3,3-dibutyl-7-(dimethylamino)-1,1-dioxido-5-phenyl-2,3,4,5-tetrahydro-1,5-benzothiazepin-8-yl)oxy)acetic Acid]
7.42 | 4.3 | 6.6 | CCCCC1(CCCC)CN(c2ccc(OC)cc2)c2cc(SC)c(OCC(=O)O)cc2S(=O)(=O)C1 [Example 2, 2-((3,3-dibutyl-5-(4-methoxyphenyl)-7-(methylthio)-1,1-dioxido-2,3,4,5-tetrahydro-1,5-benzothiazepin-8-yl)oxy)acetic Acid]
7.77 | – | – | CCCCC1(CC)CN(c2ccc(OC)cc2)c2cc(SC)c(OCC(=O)O)cc2S(=O)(=O)C1 (stereo not shown) [Example 18, 2-((3-butyl-3-ethyl-5-(4-methoxyphenyl)-7-(methylthio)-1,1-dioxido-2,3,4,5-tetrahydro-1,5-benzothiazepin-8-yl)oxy)acetic Acid]
